Key:
[1] = Caco2 drug permeability assay; assay type: in vitro ADME; conditions: human, Caco-2, pH 7.2
Description: Caco-2 cells (purchased from DSMZ Braunschweig, Germany) were seeded at a density of 4.5 × 10^4 cell per well on 24-well insert plates, 0.4 μm pore size, and grown for 15 days in DMEM medium supplemented with 10% fetal bovine serum, 1% GlutaMAX (100×, GIBCO), 100 μg/mL penicillin, 100 μg/mL streptomycin (GIBCO), and 1% nonessential amino acids (100×). Cells were maintained at 37 °C in a humified 5% CO2 atmosphere. Medium was changed every second to third day. Before running the permeation assay, the culture medium was replaced by an FCS-free Hepes-carbonate transport buffer (pH 7.2). For assessment of monolayer integrity, the transepithelial electrical resistance (TEER) was measured. Test compounds were dissolved in DMSO and added either to the apical or basolateral compartment in a final concentration of 2 μM. Before and after incubation at 37 °C, samples were taken from both compartments. Analysis of compound content was performed following precipitation with methanol and LC/MS/MS analysis. Permeability (Papp) was calculated in the apical to basolateral (A → B) and basolateral to apical (B → A) directions. The apparent permeability was calculated using following equation: [drawing 3] where Vr = volume of medium in the receiver chamber, P0 = measured peak area of the test drug in the donor chamber at t = 0, S = surface area of the monolayer, P2 = measured peak area of the test drug in the acceptor chamber after incubation for 2 h, and t = incubation time. The efflux ratio basolateral (B) to apical (A) was calculated by dividing Papp (B–A) by Papp (A–B). In addition, the compound recovery was calculated. Reference compounds were analyzed in parallel as assay controls. All samples were analyzed by LC/MS/MS.

[2] = target: T1, ABL1(F317I)-nonphosphorylated (Homo sapiens, UniProt P00519, F317I); test: KINOMEscan; assay type: binding; conditions: read-out: %Ctrl @ 1000 nM
T1 construct: purchased DiscoveRx (KINOMEscan service)

[3] = target: T2, ADCK4 (Homo sapiens, UniProt Q96D53); test: KINOMEscan; assay type: binding; conditions: read-out: %Ctrl @ 1000 nM
T2 construct: purchased DiscoveRx KINOMEscan

[4] = target: T3, AKT2 (Homo sapiens, UniProt P31751); test: KINOMEscan; assay type: binding; conditions: read-out: %Ctrl @ 1000 nM
T3 construct: purchased DiscoveRx KINOMEscan

[5] = target: T4, AURKB (Homo sapiens, UniProt Q96GD4); test: KINOMEscan; assay type: binding; conditions: read-out: %Ctrl @ 1000 nM
T4 construct: purchased DiscoveRx KINOMEscan

[6] = target: T5, CAMK1D (Homo sapiens, UniProt Q8IU85); test: KINOMEscan; assay type: binding; conditions: read-out: %Ctrl @ 1000 nM
T5 construct: purchased DiscoveRx KINOMEscan

[7] = target: T6, CDKL3 (Homo sapiens, UniProt Q8IVW4); test: KINOMEscan; assay type: binding; conditions: read-out: %Ctrl @ 1000 nM
T6 construct: purchased DiscoveRx KINOMEscan

[8] = target: T7, CHEK1 (Homo sapiens, UniProt O14757); test: KINOMEscan; assay type: binding; conditions: read-out: %Ctrl @ 1000 nM
T7 construct: purchased DiscoveRx KINOMEscan

[9] = target: T8, CSNK1G1 (Homo sapiens, UniProt Q9HCP0); test: KINOMEscan; assay type: binding; conditions: read-out: %Ctrl @ 1000 nM
T8 construct: purchased DiscoveRx KINOMEscan

[10] = target: T9, DRAK1 (Homo sapiens, UniProt Q9UEE5); test: KINOMEscan; assay type: binding; conditions: read-out: %Ctrl @ 1000 nM
T9 construct: purchased DiscoveRx KINOMEscan
T9 sequence (Q9UEE5 whole entry): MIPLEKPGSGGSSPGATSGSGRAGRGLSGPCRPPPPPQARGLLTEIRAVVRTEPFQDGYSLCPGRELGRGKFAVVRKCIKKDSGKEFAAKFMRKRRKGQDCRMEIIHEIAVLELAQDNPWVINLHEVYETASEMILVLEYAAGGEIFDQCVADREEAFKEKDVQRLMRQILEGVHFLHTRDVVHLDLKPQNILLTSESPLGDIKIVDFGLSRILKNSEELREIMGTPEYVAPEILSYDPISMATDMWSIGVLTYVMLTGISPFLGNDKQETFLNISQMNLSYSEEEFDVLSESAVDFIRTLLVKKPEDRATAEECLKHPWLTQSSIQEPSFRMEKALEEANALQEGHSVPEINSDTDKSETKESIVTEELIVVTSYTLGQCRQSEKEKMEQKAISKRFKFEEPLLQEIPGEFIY

[11] = target: T10, DRAK2 (Homo sapiens, UniProt O94768); test: KINOMEscan; assay type: binding; conditions: read-out: %Ctrl @ 1000 nM
T10 construct: purchased DiscoveRx KINOMEscan

[12] = target: T11, EPHA3 (Homo sapiens, UniProt P29320); test: KINOMEscan; assay type: binding; conditions: read-out: %Ctrl @ 1000 nM
T11 construct: purchased DiscoveRx KINOMEscan

[13] = target: T12, ERK5 (Homo sapiens, UniProt Q13164); test: KINOMEscan; assay type: binding; conditions: read-out: %Ctrl @ 1000 nM
T12 construct: purchased DiscoveRx KINOMEscan

[14] = target: T13, FGFR3(G697C) (Homo sapiens, UniProt P22607, G697C); test: KINOMEscan; assay type: binding; conditions: read-out: %Ctrl @ 1000 nM
T13 construct: purchased DiscoveRx KINOMEscan
T13 sequence (P22607 23-806 G697C): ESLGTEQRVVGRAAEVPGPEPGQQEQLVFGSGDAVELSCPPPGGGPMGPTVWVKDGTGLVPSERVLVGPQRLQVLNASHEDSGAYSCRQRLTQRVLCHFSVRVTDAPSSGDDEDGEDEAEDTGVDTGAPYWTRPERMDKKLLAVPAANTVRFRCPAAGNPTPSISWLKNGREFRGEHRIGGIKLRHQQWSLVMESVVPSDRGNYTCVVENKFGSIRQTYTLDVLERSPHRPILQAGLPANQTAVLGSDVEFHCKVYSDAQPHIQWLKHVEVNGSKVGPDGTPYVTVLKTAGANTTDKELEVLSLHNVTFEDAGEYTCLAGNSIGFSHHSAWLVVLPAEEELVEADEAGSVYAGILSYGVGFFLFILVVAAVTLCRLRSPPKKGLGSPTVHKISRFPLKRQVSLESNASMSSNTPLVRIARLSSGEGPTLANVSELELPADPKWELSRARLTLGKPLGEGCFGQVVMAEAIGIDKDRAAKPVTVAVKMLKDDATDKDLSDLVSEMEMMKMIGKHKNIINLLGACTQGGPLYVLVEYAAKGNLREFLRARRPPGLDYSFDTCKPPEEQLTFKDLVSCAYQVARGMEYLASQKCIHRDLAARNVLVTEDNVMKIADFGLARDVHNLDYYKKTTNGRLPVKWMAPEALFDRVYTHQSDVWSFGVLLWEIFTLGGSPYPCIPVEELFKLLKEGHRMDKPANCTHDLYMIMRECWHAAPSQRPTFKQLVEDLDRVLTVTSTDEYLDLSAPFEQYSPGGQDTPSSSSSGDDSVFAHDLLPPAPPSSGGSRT

[15] = target: T14, FGR (Homo sapiens, UniProt P09769); test: KINOMEscan; assay type: binding; conditions: read-out: %Ctrl @ 1000 nM
T14 construct: purchased DiscoveRx KINOMEscan

[16] = target: T15, FLT4 (Homo sapiens, UniProt P35916); test: KINOMEscan; assay type: binding; conditions: read-out: %Ctrl @ 1000 nM
T15 construct: purchased DiscoveRx KINOMEscan

[17] = target: T16, HIPK1 (Homo sapiens, UniProt Q86Z02); test: KINOMEscan; assay type: binding; conditions: read-out: %Ctrl @ 1000 nM
T16 construct: purchased DiscoveRx KINOMEscan

[18] = target: T17, JNK1 (Homo sapiens, UniProt P45983); test: KINOMEscan; assay type: binding; conditions: read-out: %Ctrl @ 1000 nM
T17 construct: purchased DiscoveRx KINOMEscan

[19] = target: T18, KIT(V559D,V654A) (Homo sapiens, UniProt P10721, V559D/V654A); test: KINOMEscan; assay type: binding; conditions: read-out: %Ctrl @ 1000 nM
T18 construct: purchased DiscoveRx KINOMEscan
T18 sequence (P10721 26-976 V559D/V654A): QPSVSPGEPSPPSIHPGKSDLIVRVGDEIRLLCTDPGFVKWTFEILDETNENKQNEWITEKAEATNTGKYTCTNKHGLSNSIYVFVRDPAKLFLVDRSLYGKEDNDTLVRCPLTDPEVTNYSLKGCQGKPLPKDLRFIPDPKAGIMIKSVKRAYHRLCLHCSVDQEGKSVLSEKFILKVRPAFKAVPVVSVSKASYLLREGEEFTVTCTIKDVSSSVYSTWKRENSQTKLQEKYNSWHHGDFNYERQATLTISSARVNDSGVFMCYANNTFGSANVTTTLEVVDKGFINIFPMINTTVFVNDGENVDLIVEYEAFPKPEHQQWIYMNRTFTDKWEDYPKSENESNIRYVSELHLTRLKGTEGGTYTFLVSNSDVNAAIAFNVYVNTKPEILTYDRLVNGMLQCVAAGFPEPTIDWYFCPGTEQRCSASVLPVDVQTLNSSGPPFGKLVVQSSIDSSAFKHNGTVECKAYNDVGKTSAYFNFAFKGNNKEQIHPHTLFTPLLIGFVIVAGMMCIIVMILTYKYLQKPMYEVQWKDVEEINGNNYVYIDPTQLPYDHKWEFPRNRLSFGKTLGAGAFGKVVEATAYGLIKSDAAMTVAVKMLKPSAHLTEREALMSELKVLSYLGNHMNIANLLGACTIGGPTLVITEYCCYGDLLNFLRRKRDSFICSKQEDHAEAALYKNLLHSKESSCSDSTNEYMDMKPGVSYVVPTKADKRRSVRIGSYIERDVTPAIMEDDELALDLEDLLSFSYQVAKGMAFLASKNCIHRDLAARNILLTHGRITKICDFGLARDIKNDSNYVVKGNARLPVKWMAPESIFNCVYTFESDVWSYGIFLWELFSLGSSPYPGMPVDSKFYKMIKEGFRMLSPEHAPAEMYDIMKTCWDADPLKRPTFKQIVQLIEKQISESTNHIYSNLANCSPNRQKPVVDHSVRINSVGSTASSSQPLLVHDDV

[20] = target: T19, LTK (Homo sapiens, UniProt P29376); test: KINOMEscan; assay type: binding; conditions: read-out: %Ctrl @ 1000 nM
T19 construct: purchased DiscoveRx KINOMEscan

[21] = target: T20, MARK2 (Homo sapiens, UniProt Q7KZI7); test: KINOMEscan; assay type: binding; conditions: read-out: %Ctrl @ 1000 nM
T20 construct: purchased DiscoveRx KINOMEscan
T20 sequence (Q7KZI7 whole entry): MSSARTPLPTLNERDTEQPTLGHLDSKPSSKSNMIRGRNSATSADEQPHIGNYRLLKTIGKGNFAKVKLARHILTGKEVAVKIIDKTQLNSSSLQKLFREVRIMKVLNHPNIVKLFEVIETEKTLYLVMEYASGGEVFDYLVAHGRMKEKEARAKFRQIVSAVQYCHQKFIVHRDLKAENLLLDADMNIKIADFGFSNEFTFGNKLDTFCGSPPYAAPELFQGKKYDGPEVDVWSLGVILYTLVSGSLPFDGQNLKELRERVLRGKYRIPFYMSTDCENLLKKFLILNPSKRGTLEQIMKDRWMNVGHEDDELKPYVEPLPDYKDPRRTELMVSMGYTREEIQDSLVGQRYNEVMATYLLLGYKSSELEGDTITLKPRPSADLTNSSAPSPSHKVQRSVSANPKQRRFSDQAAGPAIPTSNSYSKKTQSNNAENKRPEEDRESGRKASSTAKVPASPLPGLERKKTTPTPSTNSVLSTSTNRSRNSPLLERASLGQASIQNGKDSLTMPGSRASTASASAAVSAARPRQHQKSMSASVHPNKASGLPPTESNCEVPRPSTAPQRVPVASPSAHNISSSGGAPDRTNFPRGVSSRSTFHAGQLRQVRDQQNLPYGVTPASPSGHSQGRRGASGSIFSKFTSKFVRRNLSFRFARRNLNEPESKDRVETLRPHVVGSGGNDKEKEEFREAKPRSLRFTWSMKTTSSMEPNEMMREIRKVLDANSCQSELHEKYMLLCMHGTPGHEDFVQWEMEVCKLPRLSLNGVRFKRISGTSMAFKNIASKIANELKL

[22] = target: T21, MUSK (Homo sapiens, UniProt O15146); test: KINOMEscan; assay type: binding; conditions: read-out: %Ctrl @ 1000 nM
T21 construct: purchased DiscoveRx KINOMEscan

[23] = target: T22, PCTK2 (Homo sapiens, UniProt Q00537); test: KINOMEscan; assay type: binding; conditions: read-out: %Ctrl @ 1000 nM
T22 construct: purchased DiscoveRx KINOMEscan

[24] = target: T23, PIM2 (Homo sapiens, UniProt Q9P1W9); test: KINOMEscan; assay type: binding; conditions: read-out: %Ctrl @ 1000 nM
T23 construct: purchased DiscoveRx KINOMEscan
T23 sequence (Q9P1W9 whole entry): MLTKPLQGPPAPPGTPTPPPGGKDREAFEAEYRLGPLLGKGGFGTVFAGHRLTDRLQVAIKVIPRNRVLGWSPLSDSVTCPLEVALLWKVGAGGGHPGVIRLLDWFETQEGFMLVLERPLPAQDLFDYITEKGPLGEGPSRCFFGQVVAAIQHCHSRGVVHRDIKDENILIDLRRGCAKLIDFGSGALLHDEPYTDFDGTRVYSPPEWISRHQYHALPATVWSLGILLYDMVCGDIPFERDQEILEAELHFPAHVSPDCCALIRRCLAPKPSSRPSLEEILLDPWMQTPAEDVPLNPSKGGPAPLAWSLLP

[25] = target: T24, PIP5K1A (Homo sapiens, UniProt Q99755); test: KINOMEscan; assay type: binding; conditions: read-out: %Ctrl @ 1000 nM
T24 construct: purchased DiscoveRx KINOMEscan

[26] = target: T25, PIP5K2B (Homo sapiens, UniProt P78356); test: KINOMEscan; assay type: binding; conditions: read-out: %Ctrl @ 1000 nM
T25 construct: purchased DiscoveRx KINOMEscan
T25 sequence (P78356 whole entry): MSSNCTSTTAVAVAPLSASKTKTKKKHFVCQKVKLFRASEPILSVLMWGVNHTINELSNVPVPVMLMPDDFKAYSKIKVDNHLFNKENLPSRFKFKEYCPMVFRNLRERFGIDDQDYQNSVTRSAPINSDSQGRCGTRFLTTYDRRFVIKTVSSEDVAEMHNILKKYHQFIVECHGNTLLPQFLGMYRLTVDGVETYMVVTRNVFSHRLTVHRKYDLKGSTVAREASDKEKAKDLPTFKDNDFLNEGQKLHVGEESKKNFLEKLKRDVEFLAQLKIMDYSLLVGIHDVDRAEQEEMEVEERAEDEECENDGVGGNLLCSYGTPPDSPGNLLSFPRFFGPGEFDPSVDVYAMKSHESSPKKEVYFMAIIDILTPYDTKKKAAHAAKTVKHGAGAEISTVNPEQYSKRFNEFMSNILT

[27] = target: T26, PRKD1 (Homo sapiens, UniProt Q15139); test: KINOMEscan; assay type: binding; conditions: read-out: %Ctrl @ 1000 nM
T26 construct: purchased DiscoveRx KINOMEscan

[28] = target: T27, RPS6KA5(Kin.Dom.1-N-terminal) (Homo sapiens, UniProt O75582); test: KINOMEscan; assay type: binding; conditions: read-out: %Ctrl @ 1000 nM
T27 construct: RPS6KA5(Kin.Dom.1-N-terminal); purchased DiscoveRx KINOMEscan

[29] = target: T28, SRC (Homo sapiens, UniProt P12931); test: KINOMEscan; assay type: binding; conditions: read-out: %Ctrl @ 1000 nM
T28 construct: purchased DiscoveRx KINOMEscan
T28 sequence (P12931 whole entry): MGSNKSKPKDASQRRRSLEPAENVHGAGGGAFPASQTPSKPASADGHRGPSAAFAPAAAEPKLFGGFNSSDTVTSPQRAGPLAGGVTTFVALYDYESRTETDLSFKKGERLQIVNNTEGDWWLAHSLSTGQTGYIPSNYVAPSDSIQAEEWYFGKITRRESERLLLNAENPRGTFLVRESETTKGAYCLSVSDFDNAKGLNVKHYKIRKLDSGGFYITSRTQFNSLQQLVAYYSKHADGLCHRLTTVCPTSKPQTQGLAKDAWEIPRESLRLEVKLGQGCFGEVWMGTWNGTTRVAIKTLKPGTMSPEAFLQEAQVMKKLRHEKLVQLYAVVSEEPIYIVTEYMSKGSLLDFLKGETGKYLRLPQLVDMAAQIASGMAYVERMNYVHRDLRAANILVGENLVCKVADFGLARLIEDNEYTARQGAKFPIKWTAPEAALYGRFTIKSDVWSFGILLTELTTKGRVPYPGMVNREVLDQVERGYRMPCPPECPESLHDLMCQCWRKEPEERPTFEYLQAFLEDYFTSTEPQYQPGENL

[30] = target: T29, TNK1 (Homo sapiens, UniProt Q13470); test: KINOMEscan; assay type: binding; conditions: read-out: %Ctrl @ 1000 nM
T29 construct: purchased DiscoveRx KINOMEscan
T29 sequence (Q13470 whole entry): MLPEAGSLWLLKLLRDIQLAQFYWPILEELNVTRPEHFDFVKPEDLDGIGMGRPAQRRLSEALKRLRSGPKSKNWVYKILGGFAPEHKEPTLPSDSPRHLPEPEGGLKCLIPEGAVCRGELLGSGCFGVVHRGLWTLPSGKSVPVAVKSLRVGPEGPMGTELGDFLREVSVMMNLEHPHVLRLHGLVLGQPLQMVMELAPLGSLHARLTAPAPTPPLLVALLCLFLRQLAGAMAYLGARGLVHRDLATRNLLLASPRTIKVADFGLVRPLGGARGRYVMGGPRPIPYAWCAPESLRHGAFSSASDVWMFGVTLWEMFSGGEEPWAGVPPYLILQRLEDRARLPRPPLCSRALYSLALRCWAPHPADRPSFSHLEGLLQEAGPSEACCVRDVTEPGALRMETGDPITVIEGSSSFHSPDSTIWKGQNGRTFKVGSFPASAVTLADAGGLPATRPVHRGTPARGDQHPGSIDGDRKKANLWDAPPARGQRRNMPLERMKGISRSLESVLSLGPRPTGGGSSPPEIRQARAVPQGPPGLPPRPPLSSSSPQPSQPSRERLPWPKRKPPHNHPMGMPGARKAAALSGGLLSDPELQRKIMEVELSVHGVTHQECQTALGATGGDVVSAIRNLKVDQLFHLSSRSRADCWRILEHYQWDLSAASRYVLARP

[31] = target: T30, ULK1 (Homo sapiens, UniProt O75385); test: KINOMEscan; assay type: binding; conditions: read-out: %Ctrl @ 1000 nM
T30 construct: purchased DiscoveRx KINOMEscan

[32] = target: T31, YSK1 (Homo sapiens, UniProt O00506); test: KINOMEscan; assay type: binding; conditions: read-out: %Ctrl @ 1000 nM
T31 construct: purchased DiscoveRx

[33] = target: T32, YSK4 (Homo sapiens, UniProt Q56UN5); test: KINOMEscan; assay type: binding; conditions: read-out: %Ctrl @ 1000 nM
T32 construct: purchased DiscoveRx

Structure (SMILES): CCN(C(=O)CO)[C@H]1CN(/C(=N\C#N)Nc2cccc(OC(F)F)c2)N=C1c1ccc(Cl)c(Cl)c1 [(S)-4]
- Papp A→B at 2 h, 2 µM [1]: 3.4 ×10⁻⁶ cm/s
- remaining binding at 1 µM [2]: 100%
- remaining binding at 1 µM [3]: 81%
- remaining binding at 1 µM [4]: 100%
- remaining binding at 1 µM [5]: 93%
- remaining binding at 1 µM [6]: 90%
- remaining binding at 1 µM [7]: 96%
- remaining binding at 1 µM [8]: 98%
- remaining binding at 1 µM [9]: 84%
- remaining binding at 1 µM [10]: 100%
- remaining binding at 1 µM [11]: 100%
- remaining binding at 1 µM [12]: 100%
- remaining binding at 1 µM [13]: 80%
- remaining binding at 1 µM [14]: 75%
- remaining binding at 1 µM [15]: 100%
- remaining binding at 1 µM [16]: 87%
- remaining binding at 1 µM [17]: 51%
- remaining binding at 1 µM [18]: 96%
- remaining binding at 1 µM [19]: 100%
- remaining binding at 1 µM [20]: 65%
- remaining binding at 1 µM [21]: 99%
- remaining binding at 1 µM [22]: 97%
- remaining binding at 1 µM [23]: 91%
- remaining binding at 1 µM [24]: 90%
- remaining binding at 1 µM [25]: 70%
- remaining binding at 1 µM [26]: 100%
- remaining binding at 1 µM [27]: 86%
- remaining binding at 1 µM [28]: 93%
- remaining binding at 1 µM [29]: 79%
- remaining binding at 1 µM [30]: 66%
- remaining binding at 1 µM [31]: 64%
- remaining binding at 1 µM [32]: 90%
- remaining binding at 1 µM [33]: 93%

— PMC4917279 (Journal of Medicinal Chemistry, 2016)
